Experimental data: PubChem BioAssay (NCI)
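Each compound was tested at five concentrations against cells in 96-well plates for 48 hours. GI50: concentration for 50% inhibition of growth. At the TGI there is no net growth.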

What was measured:
Assay in all cases: NCI anticancer screen, dose series, 48 h
[1] = tested on: CCRF-CEM leukemia
[2] = tested on: MALME-3M melanoma
[3] = tested on: BT-549 breast
[4] = tested on: UACC-257 melanoma
[5] = tested on: IGROV1 ovarian
[6] = tested on: OVCAR-8 ovarian
[7] = tested on: MCF7 breast
[8] = tested on: SR leukemia
[9] = tested on: OVCAR-3 ovarian
[10] = tested on: NCI-H522 lung
[11] = tested on: NCI-H460 lung
[12] = tested on: NCI/ADR-RES ovarian
[13] = tested on: SK-MEL-2 melanoma
[14] = tested on: SW-620 colon
[15] = tested on: SN12C renal
[16] = tested on: NCI-H226 lung
[17] = tested on: SK-MEL-28 melanoma
[18] = tested on: UO-31 renal
[19] = tested on: A549 NSCLC
[20] = tested on: SF-539 CNS
[21] = tested on: SK-MEL-5 melanoma
[22] = tested on: UACC-62 melanoma
[23] = tested on: SNB-19 CNS
[24] = tested on: HL-60(TB) leukemia
[25] = tested on: OVCAR-4 ovarian
[26] = tested on: OVCAR-5 ovarian
[27] = tested on: SK-OV-3 ovarian
[28] = tested on: HS 578T breast
[29] = tested on: NCI-H23 lung
[30] = tested on: EKVX NSCLC
[31] = tested on: RXF 393 renal
[32] = tested on: PC-3 prostate
[33] = tested on: MDA-MB-435
[34] = tested on: COLO 205 colon
[35] = tested on: MDA-MB-231 breast
[36] = tested on: 786-0 renal
[37] = tested on: MOLT-4 leukemia
[38] = tested on: HOP-62 NSCLC
[39] = tested on: TK-10 renal
[40] = tested on: DU-145 prostate
[41] = tested on: SF-268 CNS
[42] = tested on: SF-295 CNS
[43] = tested on: A498 renal
[44] = tested on: HCT-116 colon
[45] = tested on: KM12 colon
[46] = tested on: CAKI-1 renal
[47] = tested on: T-47D breast
[48] = tested on: K-562 leukemia

`Cc1ccc(/C(=C/C=C(C#N)C#N)Sc2nc3ccccc3s2)cc1` showed a GI50 [1] of 0.465 µM, a TGI [1] of 3.02 µM and a GI50 [2] of 2.52 µM. For the same molecule, the TGI [2] was 6.57 µM, the GI50 [3] was 0.793 µM and the TGI [3] was 3.65 µM. It also gave a GI50 [4] of 12.1 µM, a TGI [4] of 27.3 µM and a GI50 [5] of 4.78 µM. It also gave a TGI [5] of 29.8 µM, a GI50 [6] of 4.35 µM and a TGI [6] of 65.6 µM. For the same molecule, the GI50 [7] was 4.3 µM, the TGI [7] was 32.7 µM and the GI50 [8] was greater than 100 µM. It also gave a TGI [8] greater than 100 µM, a GI50 [9] of 4.49 µM and a TGI [9] of 19 µM. For the same molecule, the GI50 [10] was 7.36 µM, the TGI [10] was 32.9 µM and the GI50 [11] was 18.3 µM. The TGI [11] was 75.3 µM, the GI50 [12] was 4.24 µM and the TGI [12] was 18.7 µM. It also gave a GI50 [13] of 4.95 µM, a TGI [13] of 27.1 µM and a GI50 [14] of 2.42 µM. It also gave a TGI [14] of 5.73 µM, a GI50 [15] of 1.98 µM and a TGI [15] of 4.55 µM. It also gave a GI50 [16] of 3.5 µM, a TGI [16] of 8.01 µM and a GI50 [17] of 5.14 µM. The TGI [17] was 23.9 µM, the GI50 [18] was 3.41 µM and the TGI [18] was 22.5 µM. It also gave a GI50 [19] of 19.8 µM, a TGI [19] of 45.5 µM and a GI50 [20] of 4.77 µM. It also gave a TGI [20] of 20.8 µM, a GI50 [21] of 13.3 µM and a TGI [21] of 26.6 µM. The GI50 [22] was 2.6 µM, the TGI [22] was 6.22 µM and the GI50 [23] was 14.8 µM. The TGI [23] was 34.1 µM, the GI50 [24] was 7.02 µM and the TGI [24] was greater than 100 µM. The GI50 [25] was 6.68 µM, the TGI [25] was 87.6 µM and the GI50 [26] was 24.1 µM. It also gave a TGI [26] of 42.1 µM, a GI50 [27] of 14.1 µM and a TGI [27] of 30 µM. For the same molecule, the GI50 [28] was 9.86 µM, the TGI [28] was 56.1 µM and the GI50 [29] was 3.36 µM. The TGI [29] was 11.6 µM, the GI50 [30] was 17.7 µM and the TGI [30] was 39.4 µM. For the same molecule, the GI50 [31] was 3.78 µM, the TGI [31] was 13.8 µM and the GI50 [32] was 2.25 µM. It also gave a TGI [32] of 6.52 µM, a GI50 [33] of 3.54 µM and a TGI [33] of 13.1 µM. For the same molecule, the GI50 [34] was 3.84 µM, the TGI [34] was 16 µM and the GI50 [35] was 2.18 µM. It also gave a TGI [35] of 5.56 µM, a GI50 [36] of 2.43 µM and a TGI [36] of 6.78 µM. It also gave a GI50 [37] greater than 100 µM, a TGI [37] greater than 100 µM and a GI50 [38] of 10.1 µM. The TGI [38] was 30.3 µM, the GI50 [39] was 2.42 µM and the TGI [39] was 6.37 µM. It also gave a GI50 [40] of 4.18 µM, a TGI [40] of 14.5 µM and a GI50 [41] of 5.81 µM. For the same molecule, the TGI [41] was 22.1 µM, the GI50 [42] was 5.77 µM and the TGI [42] was 21 µM. It also gave a GI50 [43] of 20.9 µM, a TGI [43] of 35.9 µM and a GI50 [44] of 2.47 µM. For the same molecule, the TGI [44] was 6.3 µM, the GI50 [45] was 4.72 µM and the TGI [45] was 28.9 µM. The GI50 [46] was 2.72 µM, the TGI [46] was 8.35 µM and the GI50 [47] was 5.2 µM. For the same molecule, the TGI [47] was 35.7 µM, the GI50 [48] was 6.25 µM and the TGI [48] was greater than 100 µM.
